From patent US10597388B2, “Pyridazinone herbicides” (FMC CORPORATION, priority 2014, dated 2020)

Legend:
Type in all cases: in vivo
[1] = test system: ryegrass, Italian (Italian ryegrass, Lolium multiflorum); experiment: Test A greenhouse herbicide test, pre- and postemergence
How it was run: (§1)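 Seeds in loam–sand blend received a preemergence directed soil spray; plants at 2–10 cm, one- to two-leaf stage, received postemergence sprays. Compounds in a non-phytotoxic solvent with surfactant. After about 10 d in a greenhouse, injury rated visually versus untreated controls on a 0–100 scale (100 = complete control).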

[2] = test system: pigweed (Amaranthus retroflexus); experiment: as above
How it was run: as §1

corn (Zea mays) = experiment: as above; details: Postemergence; for Plant response rating, Corn: 125 g ai/ha, visual rating after approx. 10 d, 0 to 100 scale (0 no effect, 100 complete control); for Corn plant response rating: 500 g ai/ha, 0 to 100 scale, 0 is no effect, 100 is complete control
How it was run: as §1

[3] = test system: wheat (Triticum aestivum); experiment: as above; details: Postemergence; for Plant response rating, Wheat: 125 g ai/ha, 0 to 100 scale where 0 is no effect and 100 is complete control; for Wheat plant response rating: 500 g ai/ha, 0 to 100 scale, 0 is no effect, 100 is complete control
How it was run: as §1

[4] = test system: foxtail, giant (giant foxtail, Setaria faberii); experiment: as above
How it was run: as §1

[5] = test system: ragweed (common ragweed, Ambrosia elatior); experiment: as above
How it was run: as §1

kochia (Kochia scoparia) = experiment: as above
How it was run: as §1

[6] = test system: nutsedge, yellow (yellow nutsedge, Cyperus esculentus); experiment: Test C greenhouse herbicide test, pre- and postemergence
How it was run: (§2)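 Visual ratings on a 0 to 100 scale (0 = no effect, 100 = complete control) versus untreated controls, scored 13–15 d after treatment. Soil-applied preemergence to seeded loam/sand; foliar postemergence to 1- to 4-leaf plants (2–18 cm) in peat-vermiculite mix; compounds formulated in solvent plus surfactant.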

[7] = test system: oilseed rape (Brassica napus); experiment: as above
How it was run: as §2

[8] = test system: velvetleaf (Abutilon theophrasti); experiment: as above
How it was run: as §2

[9] = test system: galium (catchweed bedstraw, Galium aparine); experiment: as above
How it was run: as §2

[10] = Postemergence, 125 g ai/ha, 0 to 100 scale where 0 is no effect and 100 is complete control
[11] = Postemergence, 500 g ai/ha, 0 to 100 scale, 0 is no effect, 100 is complete control
[12] = Preemergence, 125 g ai/ha, 0 to 100 scale where 0 is no effect and 100 is complete control
[13] = Preemergence, 500 g ai/ha, 0 to 100 scale, 0 no effect, 100 complete control
[14] = Postemergence, 125 g ai/ha, visual rating after approx. 10 d, 0 to 100 scale (0 no effect, 100 complete control)
[15] = Postemergence, 31 g ai/ha, 0 to 100 scale (0 no effect, 100 complete control)
[16] = Postemergence, 250 g ai/ha, scale 0 to 100, 0 no effect, 100 complete control, 13 to 15 d
[17] = Preemergence, 31 g ai/ha, scale 0 to 100, 0 is no effect, 100 is complete control
[18] = Preemergence, 62 g ai/ha, scale 0 to 100, 0 is no effect, 100 is complete control
[19] = Preemergence, 125 g ai/ha, scale 0 to 100, 0 is no effect, 100 is complete control
[20] = Preemergence, 250 g ai/ha, scale 0 to 100 (0 no effect, 100 complete control)
[21] = postemergence, 62 g ai/ha, scale 0 to 100, 0 no effect, 100 complete control
[22] = Postemergence, 125 g ai/ha, scale 0 to 100, 0 is no effect, 100 is complete control

`CC(=O)Oc1c(C)nn(C)c(=O)c1-c1c(C)sc2c(C)cc(C)cc12` [Compound 27] was tested, and the “Plant response rating, Ryegrass, Italian” value [1, 10] was 100, the “Ryegrass, Italian plant response rating” value [1, 11] was 100 and the “Ryegrass, Italian plant response rating” value [1, 12] was 100. For the same compound, the “Plant response rating, Ryegrass, Italian” value [1, 13] was 100, the “Plant response rating, Pigweed” value [2, 14] was 90 and the “Pigweed plant response rating” value [2, 11] was 100. For the same compound, the “Pigweed plant response rating” value [2, 12] was 100, the “Plant response rating, Pigweed” value [2, 13] was 100 and the “Plant response rating, Corn” value (corn (Zea mays)) was 0. For the same compound, the “Corn plant response rating” value (corn (Zea mays)) was 20, the “Plant response rating, Wheat” value [3] was 0 and the “Wheat plant response rating” value [3] was 0. For the same compound, the “Plant response rating, Foxtail, Giant” value [4, 14] was 90, the “Foxtail, Giant plant response rating” value [4, 11] was 90 and the “Foxtail, Giant plant response rating” value [4, 12] was 90. The “Plant response rating, Foxtail, Giant” value [4, 13] was 100, the “Plant response rating, Ragweed” value [5, 14] was 100 and the “Ragweed plant response rating” value [5, 11] was 100. The “Ragweed plant response rating” value [5, 12] was 90, the “Plant response rating, Ragweed” value [5, 13] was 100 and the “Plant response rating, Kochia” value (kochia (Kochia scoparia); [14]) was 70. The “Kochia plant response rating” value (kochia (Kochia scoparia); [11]) was 90, the “Kochia plant response rating” value (kochia (Kochia scoparia); [12]) was 40 and the “Plant response rating, Kochia” value (kochia (Kochia scoparia); [13]) was 90. The “Nutsedge, Yellow plant response rating” value [6, 15] was 85, the “Plant response rating, Nutsedge, Yellow” value [6, 16] was 95 and the “Plant response rating, Nutsedge, Yellow” value [6, 17] was 70. For the same compound, the “Plant response rating, Nutsedge, Yellow” value [6, 18] was 90, the “Plant response rating, Nutsedge, Yellow” value [6, 19] was 90 and the “Nutsedge, Yellow plant response rating” value [6, 20] was 95. The “Nutsedge, Yellow plant response rating” value [6, 21] was 80, the “Oilseed Rape plant response rating” value [7, 15] was 5 and the “Plant response rating, Oilseed Rape” value [7, 22] was 80. The “Plant response rating, Oilseed Rape” value [7, 16] was 70, the “Plant response rating, Oilseed Rape” value [7, 17] was 5 and the “Plant response rating, Oilseed Rape” value [7, 18] was 95. The “Plant response rating, Oilseed Rape” value [7, 19] was 98, the “Oilseed Rape plant response rating” value [7, 20] was 98 and the “Oilseed Rape plant response rating” value [7, 21] was 70. The “Velvetleaf plant response rating” value [8, 15] was 80, the “Plant response rating, Velvetleaf” value [8, 22] was 90 and the “Plant response rating, Velvetleaf” value [8, 16] was 95. The “Plant response rating, Velvetleaf” value [8, 18] was 85, the “Plant response rating, Velvetleaf” value [8, 19] was 85 and the “Velvetleaf plant response rating” value [8, 20] was 98. For the same compound, the “Velvetleaf plant response rating” value [8, 21] was 85, the “Galium plant response rating” value [9, 15] was 100 and the “Plant response rating, Galium” value [9, 22] was 100. For the same compound, the “Plant response rating, Galium” value [9, 16] was 100, the “Plant response rating, Galium” value [9, 17] was 90 and the “Plant response rating, Galium” value [9, 18] was 95. For the same compound, the “Plant response rating, Galium” value [9, 19] was 95, the “Galium plant response rating” value [9, 20] was 95 and the “Galium plant response rating” value [9, 21] was 100.
`CCC(=O)Oc1c(C)nn(C)c(=O)c1-c1c(C)sc2c(C)cc(C)cc12` [Compound 28] was tested, and the “Plant response rating, Ryegrass, Italian” value [1, 10] was 90, the “Ryegrass, Italian plant response rating” value [1, 11] was 100 and the “Ryegrass, Italian plant response rating” value [1, 12] was 100. The “Plant response rating, Ryegrass, Italian” value [1, 13] was 100, the “Plant response rating, Pigweed” value [2, 14] was 90 and the “Pigweed plant response rating” value [2, 11] was 90. For the same compound, the “Pigweed plant response rating” value [2, 12] was 100, the “Plant response rating, Pigweed” value [2, 13] was 100 and the “Plant response rating, Corn” value (corn (Zea mays)) was 0. For the same compound, the “Corn plant response rating” value (corn (Zea mays)) was 20, the “Plant response rating, Wheat” value [3] was 0 and the “Wheat plant response rating” value [3] was 0. For the same compound, the “Plant response rating, Foxtail, Giant” value [4, 14] was 90, the “Foxtail, Giant plant response rating” value [4, 11] was 90 and the “Foxtail, Giant plant response rating” value [4, 12] was 100. For the same compound, the “Plant response rating, Foxtail, Giant” value [4, 13] was 100, the “Plant response rating, Ragweed” value [5, 14] was 80 and the “Ragweed plant response rating” value [5, 11] was 100. For the same compound, the “Ragweed plant response rating” value [5, 12] was 90, the “Plant response rating, Ragweed” value [5, 13] was 90 and the “Plant response rating, Kochia” value (kochia (Kochia scoparia); [14]) was 70. For the same compound, the “Kochia plant response rating” value (kochia (Kochia scoparia); [11]) was 90, the “Kochia plant response rating” value (kochia (Kochia scoparia); [12]) was 50 and the “Plant response rating, Kochia” value (kochia (Kochia scoparia); [13]) was 90. The “Nutsedge, Yellow plant response rating” value [6, 15] was 75, the “Plant response rating, Nutsedge, Yellow” value [6, 22] was 85 and the “Plant response rating, Nutsedge, Yellow” value [6, 16] was 90. The “Plant response rating, Nutsedge, Yellow” value [6, 17] was 50, the “Plant response rating, Nutsedge, Yellow” value [6, 18] was 75 and the “Plant response rating, Nutsedge, Yellow” value [6, 19] was 85. For the same compound, the “Nutsedge, Yellow plant response rating” value [6, 20] was 70, the “Nutsedge, Yellow plant response rating” value [6, 21] was 85 and the “Oilseed Rape plant response rating” value [7, 15] was 5. The “Plant response rating, Oilseed Rape” value [7, 22] was 5, the “Plant response rating, Oilseed Rape” value [7, 16] was 70 and the “Plant response rating, Oilseed Rape” value [7, 17] was 0. The “Plant response rating, Oilseed Rape” value [7, 18] was 20, the “Plant response rating, Oilseed Rape” value [7, 19] was 85 and the “Oilseed Rape plant response rating” value [7, 20] was 90. The “Oilseed Rape plant response rating” value [7, 21] was 60, the “Velvetleaf plant response rating” value [8, 15] was 70 and the “Plant response rating, Velvetleaf” value [8, 22] was 85. For the same compound, the “Plant response rating, Velvetleaf” value [8, 16] was 90, the “Plant response rating, Velvetleaf” value [8, 18] was 85 and the “Plant response rating, Velvetleaf” value [8, 19] was 90. For the same compound, the “Velvetleaf plant response rating” value [8, 20] was 95, the “Velvetleaf plant response rating” value [8, 21] was 85 and the “Galium plant response rating” value [9, 15] was 100. For the same compound, the “Plant response rating, Galium” value [9, 22] was 100, the “Plant response rating, Galium” value [9, 16] was 100 and the “Plant response rating, Galium” value [9, 17] was 95. For the same compound, the “Plant response rating, Galium” value [9, 18] was 95, the “Plant response rating, Galium” value [9, 19] was 95 and the “Galium plant response rating” value [9, 20] was 95. For the same compound, the “Galium plant response rating” value [9, 21] was 100.
`COc1nn(C)c(=O)c(-c2c(C)sc3ccccc23)c1O` [Compound 33] was tested, and the “Plant response rating, Ryegrass, Italian” value [1, 10] was 50, the “Ryegrass, Italian plant response rating” value [1, 11] was 70 and the “Ryegrass, Italian plant response rating” value [1, 12] was 20. For the same compound, the “Plant response rating, Ryegrass, Italian” value [1, 13] was 60, the “Plant response rating, Pigweed” value [2, 14] was 40 and the “Pigweed plant response rating” value [2, 11] was 70. For the same compound, the “Pigweed plant response rating” value [2, 12] was 20, the “Plant response rating, Pigweed” value [2, 13] was 20 and the “Plant response rating, Corn” value (corn (Zea mays)) was 0. For the same compound, the “Corn plant response rating” value (corn (Zea mays)) was 10, the “Plant response rating, Wheat” value [3] was 0 and the “Wheat plant response rating” value [3] was 0. For the same compound, the “Plant response rating, Foxtail, Giant” value [4, 14] was 40, the “Foxtail, Giant plant response rating” value [4, 11] was 90 and the “Foxtail, Giant plant response rating” value [4, 12] was 50. The “Plant response rating, Foxtail, Giant” value [4, 13] was 70, the “Plant response rating, Ragweed” value [5, 14] was 90 and the “Ragweed plant response rating” value [5, 11] was 90. For the same compound, the “Ragweed plant response rating” value [5, 12] was 80, the “Plant response rating, Ragweed” value [5, 13] was 100 and the “Plant response rating, Kochia” value (kochia (Kochia scoparia); [14]) was 90. The “Kochia plant response rating” value (kochia (Kochia scoparia); [11]) was 100, the “Kochia plant response rating” value (kochia (Kochia scoparia); [12]) was 30 and the “Plant response rating, Kochia” value (kochia (Kochia scoparia); [13]) was 80. The “Nutsedge, Yellow plant response rating” value [6, 15] was 5, the “Plant response rating, Nutsedge, Yellow” value [6, 22] was 45 and the “Plant response rating, Nutsedge, Yellow” value [6, 16] was 65. The “Nutsedge, Yellow plant response rating” value [6, 21] was 15, the “Oilseed Rape plant response rating” value [7, 15] was 40 and the “Plant response rating, Oilseed Rape” value [7, 22] was 30. The “Plant response rating, Oilseed Rape” value [7, 16] was 50, the “Oilseed Rape plant response rating” value [7, 21] was 55 and the “Velvetleaf plant response rating” value [8, 15] was 10. The “Plant response rating, Velvetleaf” value [8, 22] was 75, the “Plant response rating, Velvetleaf” value [8, 16] was 85 and the “Velvetleaf plant response rating” value [8, 21] was 60. The “Galium plant response rating” value [9, 15] was 90, the “Plant response rating, Galium” value [9, 22] was 95 and the “Plant response rating, Galium” value [9, 16] was 95. The “Galium plant response rating” value [9, 21] was 90.
